Reference: patent US7803801B2, “Aminopyridine compounds having Syk inhibitory activity” (Japan Tobacco, Inc., priority 2005, dated 2010)
Counter-ions that a name gives are not always drawn. Like-named read-outs stand apart in the source and are kept apart here.

Assays:
[1] = molecular target: GST-Syk Full Protein (human) (Homo sapiens, UniProt P43405); test: Syk kinase inhibition test (HTRF method); format: biochemical
Summary of the method: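 Human GST-Syk full-length (6.4 nM) phosphorylated biotin-EDPDYEWPSA-NH2 (250 nM) with 100 μM ATP in HEPES pH 7.0/MgCl2 buffer, 2% DMSO, 30 min at room temperature. EDTA stop, then HTRF detection (streptavidin-XL665, Eu anti-phosphotyrosine) after 1 h; 665/620 ratio read.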

[2] = tested on: cultured human mast cells; test: Degranulation inhibition test using cultured human mast cells (IgE cross-linking, β-Hexosaminidase release); format: cell-based; conditions: Mast cell, cultured human mast cells, read-out: human degranulation ave. IC50
Summary of the method: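 CD34+ cord-blood cells cultured ≥8 weeks with SCF/IL-6/IL-3; FcεRI primed 5 days with rhIL-4 (1 ng/mL) and hIgE (0.5 μg/mL). Compound (0.1% DMSO) preincubated 10 min at 37 °C, then anti-IgE (final 10 μg/mL) 30 min; released β-hexosaminidase read at 405 nm versus total lysate, IC50 (M).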

[3] = HTRF, 100 μM ATP, 30 min room temperature, average, read-out: sykHTRF ave IC50
[4] = anti-hIgE stimulation, β-Hexosaminidase index, average
[5] = Tables 1-x, compounds A, read-out: sykHTRF ave IC50
[6] = Tables 2-x, thiophene compounds B, read-out: sykHTRK ave IC50
[7] = Tables 2-x, thiophene compounds B

Structure (SMILES)	IC50 [1, 3] [nM]	IC50 [2, 4] [nM]	IC50 [1, 5] [nM]	IC50 ([2]; Tables 1-x, compounds A) [nM]	further results
CC(=O)N[C@@H](COCc1ccccc1)c1ncc(-c2cccc(Nc3cc(C)ccn3)n2)s1 [Compound A-45]	> 1000	> 1000	–	–	–
CC(=O)c1ccnc(Nc2cccc(-c3cnc(N4CCC[C@H]4C(=O)O)s3)n2)c1 [Compound A-564, (S)-1-{5-[6-(4-acetylpyridin-2-ylamino)pyridin-2-yl]thiazol-2-yl}pyrrolidine-2-carboxylic acid dihydrochloride]	–	–	< 100	> 1000	–
Cc1ccnc(Nc2cccc(-c3cnc(COCC(=O)N4CCNC(=O)C4)s3)n2)c1 [Compound A-370, 4-(2-{5-[6-(4-methylpyridin-2-ylamino)pyridin-2-yl]thiazol-2-ylmethoxy}acetyl)piperazin-2-one]	< 100	100 to 1000	–	–	–
Cc1ccnc(Nc2cccc(-c3cnc(CCNS(C)(=O)=O)s3)n2)c1 [Compound A-261]	100 to 1000	100 to 1000	–	–	–
Cc1ccnc(Nc2cccc(-c3cnc(N4CCc5cc(C(=O)O)ccc5C4)s3)n2)c1 [Compound A-607, 2-{5-[6-(4-methylpyridin-2-ylamino)pyridin-2-yl]thiazol-2-yl}-1,2,3,4-tetrahydroisoquinoline-6-carboxylic acid]	–	–	< 100	100 to 1000	–
NC(=O)C1CCN(c2ncc(-c3cccc(Nc4cc(Cl)ccn4)n3)s2)CC1 [Compound A-518, 1-{5-[6-(4-chloropyridin-2-ylamino)pyridin-2-yl]thiazol-2-yl}piperidine-4-carboxamide]	–	–	< 100	< 100	–
Cc1ccnc(Nc2cccc(-c3cnc(N(CC(=O)N(C)C)Cc4ccc(C(=O)O)cc4)s3)n2)c1 [Compound A-597, 4-[(N-dimethylcarbamoylmethyl-N-{5-[6-(4-methylpyridin-2-ylamino)pyridin-2-yl]thiazol-2-yl}amino)methyl]benzoic acid dihydrochloride]	–	–	< 100	> 1000	–
CCC(O)c1ccc(-c2cccc(Nc3cc(C)ccn3)n2)s1 (centres unmarked) [Compound B-47]	–	–	–	–	IC50 [1, 6]: 100 to 1000 nM; IC50 [2, 7]: 100 to 1000 nM
Cc1ccnc(Nc2cccc(-c3cnc(Cc4ccc(C(=O)N5CCC(O)CC5)cc4)s3)n2)c1 [Compound A-234]	> 1000	> 1000	–	–	–
CCOC(=O)CCC(=O)N[C@@H](C)c1ncc(-c2cccc(Nc3cc(C)ccn3)n2)s1 [Compound A-120]	> 1000	> 1000	–	–	–
Cc1ccnc(Nc2cccc(-c3ccc(C=O)s3)n2)c1 [Compound B-2, 5-[6-(4-methylpyridin-2-ylamino)pyridin-2-yl]thiophene-2-carboxaldehyde]	–	–	–	–	IC50 [1, 6]: < 100 nM; IC50 [2, 7]: > 1000 nM
Cc1ccnc(Nc2cccc(-c3cnc(N(C)Cc4ccc(C(=O)O)cc4Cl)s3)n2)c1 [Compound A-604, 3-chloro-4-[(N-methyl-N-{5-[6-(4-methylpyridin-2-ylamino)pyridin-2-yl]thiazol-2-yl}amino)methyl]benzoic acid dihydrochloride]	–	–	< 100	100 to 1000	–
COc1ccc(C[C@H](N)c2ncc(-c3cccc(Nc4cc(C)ccn4)n3)s2)cc1 [Compound A-134]	100 to 1000	> 1000	–	–	–
CC(=O)c1ccnc(Nc2cccc(-c3cnc(N4CCC[C@@H](C(=O)O)C4)s3)n2)c1 [Compound A-560, (R)-1-{5-[6-(4-acetylpyridin-2-ylamino)pyridin-2-yl]thiazol-2-yl}piperidine-3-carboxylic acid]	–	–	< 100	100 to 1000	–
Cc1ccnc(Nc2cccc(-c3cnc(CCCCCN)s3)n2)c1 [Compound A-128, 5-{5-[6-(4-methylpyridin-2-ylamino)pyridin-2-yl]thiazol-2-yl}pentylamine]	< 100	> 1000	–	–	–
Cc1ccnc(Nc2cccc(-c3cnc([C@H](C)NC(C)C)s3)n2)c1 [Compound A-65]	100 to 1000	100 to 1000	–	–	–
Cc1ccnc(Nc2cccc(-c3cnc(CCCCC(N)=O)s3)n2)c1 [Compound A-71, 5-{5-[6-(4-methylpyridin-2-ylamino)pyridin-2-yl]thiazol-2-yl}pentanamide]	< 100	100 to 1000	–	–	–
COC(CN(C)c1ncc(-c2cccc(Nc3cc(C)ccn3)n2)s1)OC [Compound A-457, N-(2,2-dimethoxyethyl)-N-methyl-N-{5-[6-(4-methylpyridin-2-ylamino)pyridin-2-yl]thiazol-2-yl}amine]	–	–	< 100	100 to 1000	–
Cc1ccnc(Nc2cccc(-c3ccc(C(=O)C(C)C)s3)n2)c1 [Compound B-49]	–	–	–	–	IC50 [1, 6]: 100 to 1000 nM; IC50 [2, 7]: > 1000 nM
Cc1ccnc(Nc2cccc(-c3ccc(C(O)C(C)C)s3)n2)c1 (centres unmarked) [Compound B-45]	–	–	–	–	IC50 [1, 6]: 100 to 1000 nM; IC50 [2, 7]: > 1000 nM
CC(=O)c1ccc(-c2cccc(Nc3cc(CCO)ccn3)n2)s1 [Compound B-56]	–	–	–	–	IC50 [1, 6]: 100 to 1000 nM; IC50 [2, 7]: 100 to 1000 nM
CNC(=O)C1(C)CCN(c2ncc(-c3cccc(Nc4cc(C)ccn4)n3)s2)CC1 [Compound A-501, N-methyl-4-methyl-1-{5-[6-(4-methylpyridin-2-ylamino)pyridin-2-yl]thiazol-2-yl}piperidine-4-carboxamide]	–	–	< 100	100 to 1000	–
Cc1ccnc(Nc2cccc(-c3cnc(CNC(=O)NCC(=O)O)s3)n2)c1 [Compound A-254]	100 to 1000	> 1000	–	–	–

Now from value to compound, other results behind:

IC50 [1, 3] [nM]	IC50 [2, 4] [nM]	IC50 [1, 5] [nM]	IC50 ([2]; Tables 1-x, compounds A) [nM]	Structure (SMILES)	further results
100 to 1000	> 1000	–	–	Cc1ccnc(Nc2cccc(-c3cnc(CNCCC(=O)O)s3)n2)c1 [Compound A-165]	–
–	–	> 1000	> 1000	Cc1ccnc(Nc2cccc(-c3cnc([C@@H]4COC(=O)N4CC(=O)O)s3)n2)c1 [Compound A-407]	–
100 to 1000	100 to 1000	–	–	Cc1ccnc(Nc2cccc(-c3cnc([C@H]4CC[C@H](C(=O)N[C@H]5CC[C@H](O)CC5)CC4)s3)n2)c1 [Compound A-305]	–
–	–	< 100	< 100	Cc1ccnc(Nc2cccc(-c3cnc(N4CCCC(C(N)=O)C4)s3)n2)c1 (centres unmarked) [Compound A-476, 1-{5-[6-(4-methylpyridin-2-ylamino)pyridin-2-yl]thiazol-2-yl}piperidine-3-carboxamide]	–
< 100	> 1000	–	–	CC(=O)N[C@H]1CC[C@H](c2ncc(-c3cccc(Nc4cc(C)ccn4)n3)s2)CC1 [Compound A-202, N-(trans-4-{5-[6-(4-methylpyridin-2-ylamino)pyridin-2-yl]thiazol-2-yl}cyclohexyl)acetamide]	–
100 to 1000	100 to 1000	–	–	Cc1ccnc(Nc2cccc(-c3cnc([C@H]4CC[C@H](C(=O)N5C[C@H](O)C[C@H](O)C5)CC4)s3)n2)c1 [Compound A-227]	–
100 to 1000	100 to 1000	–	–	Cc1ccnc(Nc2cccc(-c3cnc(CNC(=O)CO)s3)n2)c1 [Compound A-201]	–
< 100	> 1000	–	–	Cc1ccnc(Nc2cccc(-c3cnc([C@H]4CC[C@H](C(=O)N5CCC(N)CC5)CC4)s3)n2)c1 [Compound A-290, (4-aminopiperidin-1-yl)-(trans-4-{5-[6-(4-methylpyridin-2-ylamino)pyridin-2-yl]thiazol-2-yl}cyclohexyl)methanone]	–
> 1000	> 1000	–	–	Cc1ccnc(Nc2cccc(-c3cnc(COC(=O)NC[C@H]4CC[C@H](C(=O)O)CC4)s3)n2)c1 [Compound A-206]	–
100 to 1000	100 to 1000	–	–	Cc1ccnc(Nc2cccc(-c3cnc([C@@H]4CCCC(=O)N4C)s3)n2)c1 [Compound A-364]	–
–	–	< 100	100 to 1000	COc1ccnc(Nc2cccc(-c3cnc(N4CCOCC4)s3)n2)c1 [Compound A-422, N-(4-methoxypyridin-2-yl)-N-{6-[2-(morpholin-4-yl)thiazol-5-yl]pyridin-2-yl}amine]	–
< 100	100 to 1000	–	–	Cc1ccnc(Nc2cccc(-c3cnc([C@H]4CC[C@H](C(=O)NCCN5CCOCC5)CC4)s3)n2)c1 [Compound A-268, N-(2-morpholin-4-ylethyl)-trans-4-{5-[6-(4-methylpyridin-2-ylamino)pyridin-2-yl]thiazol-2-yl}cyclohexanecarboxamide]	–
< 100	100 to 1000	–	–	Cc1ccnc(Nc2cccc(-c3cnc([C@H]4CC[C@H](C(=O)NCCO)CC4)s3)n2)c1 [Compound A-267, N-(2-hydroxyethyl)-trans-4-{5-[6-(4-methylpyridin-2-ylamino)pyridin-2-yl]thiazol-2-yl}cyclohexanecarboxamide]	–
–	–	< 100	100 to 1000	Cc1ccnc(Nc2cccc(-c3cnc(N(C)C4CCC(C(N)=O)CC4)s3)n2)c1 (centres unmarked) [Compound A-446, 4-(N-methyl-N-{5-[6-(4-methylpyridin-2-ylamino)pyridin-2-yl]thiazol-2-yl}amino)cyclohexanecarboxamide]	–
–	–	< 100	> 1000	Cc1ccnc(Nc2cccc(-c3cnc(N4CC[C@@H](N)C4)s3)n2)c1 [Compound A-473, (R)-1-{5-[6-(4-methylpyridin-2-ylamino)pyridin-2-yl]thiazol-2-yl}pyrrolidin-3-ylamine]	–
–	–	< 100	< 100	Cc1ccnc(Nc2cccc(-c3cnc(N4CCN(C(=O)CO)CC4)s3)n2)c1 [Compound A-439, 2-hydroxy-1-(4-{5-[6-(4-methylpyridin-2-ylamino)pyridin-2-yl]thiazol-2-yl}piperazin-1-yl)ethanone]	–
100 to 1000	100 to 1000	–	–	CC(=O)N1CCC(CCc2ncc(-c3cccc(Nc4cc(C)ccn4)n3)s2)CC1 [Compound A-259]	–
